Measurements reported in patent US20240279281A1, “Peptide Inhibitors of Interleukin-23 Receptor” (Janssen Pharmaceutica NV, priority 2023, published 2024).
Read-outs that look alike come from different tables or passages of the source. Starred links: 1 amine or outer side, 2 acyl side, 3 side chain; linkers in the order of their positions; H or OH if unused. Positions of bridges follow the written chain, without caps; N, C: chain ends. Non-standard residues stand in square brackets, D forms with d. Residues, ends and D or L forms follow the SMILES beside them. *: point of attachment. Trp(7-(3-AcNH-Ph)) = CC(=O)Nc1cccc(-c2cccc3c(C[C@H](N)C(=O)O)c[nH]c23)c1; Me3N+(CH2)2O(CH2)2O(CH2)2CO = C[N+](C)(C)CCOCCOCCC(=O)*; 2Nal(6-OH) = N[C@@H](Cc1ccc2cc(O)ccc2c1)C(=O)O; Trp(7-Me) = Cc1cccc2c(C[C@H](N)C(=O)O)c[nH]c12; Abu(4-yl) = O=C([C@H](CC[*:3])N[*:1])[*:2]; dLys(Me3) = C[N+](C)(C)CCCC[C@@H](N)C(=O)O; 3Pal(5-Me) = Cc1cncc(C[C@H](N)C(=O)O)c1; AEF = NCCOc1ccc(C[C@H](N)C(=O)O)cc1; 3Pal = N[C@@H](Cc1cccnc1)C(=O)O; Ethyl(2-guanidino) = N=C(N)NCC*; Aad = N[C@@H](CCCC(=O)O)C(=O)O; Lys(Me) = CNCCCC[C@H](N)C(=O)O; Pen = CC(C)(S)[C@H](N)C(=O)O; Thp = NC1(C(=O)O)CCOCC1; Ava = NCCCCC(=O)O; Sar = CNCC(=O)O

Assays:
[1] = disulfide bond, 20-membered ring, I2/MeOH, 20% MeCN/H2O
[2] = target: T1, IL-23-stimulated phosphorylated STAT3 in peripheral blood mononuclear cells (PBMCs) (Homo sapiens, UniProt Q5VWK5); assay: PBMC pSTAT3 Assay; format: cell-based; conditions: PBMCs from healthy donors, IL-23 5 ng/mL, 30 minutes, read-out: PBMC pSTAT3 IC50
T1 sequence (Q5VWK5 24-629): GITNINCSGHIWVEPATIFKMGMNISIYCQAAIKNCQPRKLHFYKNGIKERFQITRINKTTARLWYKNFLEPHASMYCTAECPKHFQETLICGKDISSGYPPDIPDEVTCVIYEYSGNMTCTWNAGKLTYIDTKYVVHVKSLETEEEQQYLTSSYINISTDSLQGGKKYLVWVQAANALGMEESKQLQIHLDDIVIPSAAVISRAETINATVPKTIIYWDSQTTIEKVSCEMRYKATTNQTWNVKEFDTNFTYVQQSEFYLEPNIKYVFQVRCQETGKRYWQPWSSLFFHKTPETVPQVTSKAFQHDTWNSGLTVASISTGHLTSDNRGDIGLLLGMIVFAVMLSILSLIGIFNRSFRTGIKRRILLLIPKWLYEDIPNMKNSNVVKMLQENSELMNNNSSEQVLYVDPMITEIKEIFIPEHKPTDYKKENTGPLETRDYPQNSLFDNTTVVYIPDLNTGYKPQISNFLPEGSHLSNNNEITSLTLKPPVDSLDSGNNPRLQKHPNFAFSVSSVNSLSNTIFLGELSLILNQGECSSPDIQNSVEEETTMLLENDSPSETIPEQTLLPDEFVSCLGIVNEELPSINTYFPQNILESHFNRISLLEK
Experimental: Cryopreserved peripheral blood mononuclear cells (PBMCs) from healthy donors were thawed and washed twice in ImmunoCult-XF T cell expansion medium (XF-TCEM) supplemented with CTL anti-aggregate wash. The cells were counted, resuspended at 2-6×10^5 cells per mL XF-TCEM supplemented with penicillin/streptomycin and 100 ng/mL IL-1β (BioLegend, 579404), and cultured in tissue culture flasks coated with anti-CD3 (eBioscience, 16-0037-85 or BD Pharmingen, 555329) at 37° C. in 5% CO2. On day 4 of culture, PBMCs were collected, washed twice in RPMI-1640 supplemented with 0.1% BSA (RPMI-BSA), and incubated in RPMI-BSA in upright tissue culture flasks for ˜4 hours at 37° C. in 5% CO2. Following this ‘starvation,’ a total of 6×10^4 cells in 30 μL RPMI-BSA was transferred into each well of a 384-well plate pre-spotted with peptide or DMSO. The cells were incubated for 30 minutes prior to the addition of IL-23 at a final concentration of 5 ng/mL. The cells were stimulated with cytokine for 30 minutes at 37° C. in 5% CO2, transferred onto ice for 10 minutes, and lysed. Cell lysates were stored at −80° C. until phosphorylated STAT3 was measured using the phospho-STAT panel kit (Meso Scale Discovery, K15202D).

IL-23R = target: T2, IL-23R (Homo sapiens, UniProt Q5VWK5); assay: IL23R Reporter Assay; format: cell-based; conditions: HEK293 cells containing IL-23R, IL-12Rβ1 and STAT-inducible luciferase reporter; 10 ng/mL IL-23; 5 h; read-out: IC50
T2 construct: host or cells: HEK293
T2 sequence (Q5VWK5 24-629): T1 sequence (Q5VWK5 24-629)
Experimental: Compounds were serially diluted in 100% (v/v) DMSO) and plated using an Echo acoustic dispenser (Labcyte) into 1536-well non-treated black assay plates (Corning #9146). […] After 5 h at 37° C., 5% CO2, 95% relative humidity, cells were placed at 20° C. and treated with BioGlo reagent (Promega) according to the Manufacturer's instructions. Luminescence was measured on a Pherastar FSX (BMG LabTech).

Row | Compound | IC50 [2] | IC50 (IL-23R) | other results
1 | CC(=O)NCCCC[C@@H]1NC(=O)[C@H](Cc2c[nH]c3c(C)cccc23)NC(=O)[C@H]([C@@H](C)O)NC(=O)[C@H](CC(N)=O)NC(=O)[C@@H](NC(=O)[C@@H](CCCNC(=N)N)NC(C)=O)C(C)(C)SSC(C)(C)[C@@H](C(=O)N[C@@H](Cc2ccc(OCCN)cc2)C(=O)N[C@@H](Cc2ccc3cc(Br)ccc3c2)C(=O)NC2(C(=O)N[C@@H](CCC(=O)O)C(=O)N[C@@H](CC(N)=O)C(=O)NC3(C(N)=O)CCOCC3)CCOCC2)NC1=O | – | – | ring closure, yield after HPLC ([1]; from Ac-dArg-Pen-Asn-Thr-7MeTrp-Lys(Ac)-Pen-AEF-6Br2Nal-THP-Glu-Asn-THP-NH2, 0.977 mM): 34.1%
2 | CC(=O)NCCCC[C@@H]1NC(=O)[C@H](Cc2c[nH]c3c(C)cccc23)NC(=O)[C@H]([C@@H](C)O)NC(=O)[C@H](CC(N)=O)NC(=O)[C@@H](NC(C)=O)C(C)(C)SSC(C)(C)[C@@H](C(=O)N[C@@H](Cc2ccc(OCCN)cc2)C(=O)N[C@@H](Cc2ccc3cc(O)ccc3c2)C(=O)NC2(C(=O)N[C@@H](CCC(=O)O)C(=O)N[C@@H](CC(N)=O)C(=O)N[C@@H](Cc3cccnc3)C(=O)N(C)CC(=O)N[C@@H](CCCCNC(=O)COCCOCCNC(=O)COCCOCCNC(=O)CC[C@H](NC(=O)CCCCCCCCCCCCCCCCC(=O)O)C(=O)O)C(N)=O)CCOCC2)NC1=O | – | – | ring closure, yield after HPLC ([1]; from Ac-Pen-Asn-Thr-7MeTrp-Lys(Ac)-Pen-AEF-6OH2Nal-THP-Glu-Asn-3Pya-Sar-Lys(PEG2PEG2gEC18OH)-NH2, 0.82 mM): 12.9%
3 | CC(=O)NCCCC[C@@H]1NC(=O)[C@H](Cc2c[nH]c3c(C)cccc23)NC(=O)[C@H]([C@@H](C)O)NC(=O)[C@H](CC(N)=O)NC(=O)[C@@H]2CCSC[C@H](NC1=O)C(=O)N[C@@H](Cc1ccc(OCCN)cc1)C(=O)N[C@@H](Cc1ccc3cc(O)ccc3c1)C(=O)NC1(CCOCC1)C(=O)N[C@H](C(=O)N[C@@H](CC(N)=O)C(=O)N[C@@H](Cc1cccnc1)C(=O)N(C)CC(N)=O)CCC(=O)NCCCCC(=O)N2 [compound 171] ([Ava][Abu(4-yl)]NT[Trp(7-Me)]K(Ac)C[AEF][2Nal(6-OH)][Thp]EN[3Pal][Sar]-NH2; thioether 2-7; lactam N-11) | < 0.01 nM | < 10 nM | –
4 | CC(=O)NCCCC[C@@H]1NC(=O)[C@H](Cc2c[nH]c3c(-c4cccc(NC(C)=O)c4)cccc23)NC(=O)[C@H]([C@@H](C)O)NC(=O)[C@H](CC(N)=O)NC(=O)[C@@H](NC(=O)[C@@H](CCCNC(=N)N)NC(C)=O)C(C)(C)SSC(C)(C)[C@@H](C(=O)N[C@@H](Cc2ccc(OCCNC(=N)N)cc2)C(=O)N[C@@H](Cc2ccc3cc(O)ccc3c2)C(=O)NC2(C(=O)N[C@@H](CCC(=O)O)C(=O)N[C@@H](CC(N)=O)C(=O)N[C@@H](Cc3cncc(C)c3)C(=O)N(C)CC(N)=O)CCOCC2)NC1=O [compound 15, MeCO-r-Pen(3)-N-T-7(3NAcPh)W-K(Ac)-Pen(3)-AEF(G)-6OH2Nal-THP-E-N-5MePyridinAla-Sar-CONH2] (Ac-[dR][Pen]NT[Trp(7-(3-AcNH-Ph))]K(Ac)[Pen]Y(Ethyl(2-guanidino))[2Nal(6-OH)][Thp]EN[3Pal(5-Me)][Sar]-NH2; disulfide 2-7) | < 0.01 nM | < 10 nM | –
5 | MeCO-Pen(3)-E(2)-T-7MeW-K(Ac)-Pen(3)-AEF(2)-6OH2Nal-THP-K(Ac)-N-3Pya-Sar-CONH2 | – | – | ring closure, yield after HPLC ([1]; 0.85 mM): 8.28%
6 | CC(=O)N(C)CCCC[C@@H]1NC(=O)[C@H](Cc2c[nH]c3c(C)cccc23)NC(=O)[C@H]([C@@H](C)O)NC(=O)[C@H](CC(N)=O)NC(=O)[C@@H](NC(=O)CCOCCOCC[N+](C)(C)C)C(C)(C)SSC(C)(C)[C@@H](C(=O)N[C@@H](Cc2ccc(OCCN)cc2)C(=O)N[C@@H](Cc2ccc3cc(O)ccc3c2)C(=O)NC2(C(=O)N[C@@H](CCC(=O)N(C)C)C(=O)N[C@@H](CC(N)=O)C(=O)N[C@@H](Cc3cccnc3)C(=O)N(C)CC(N)=O)CCOCC2)NC1=O [compound 392, cPEG3aCO-Pen(3)-N-T-7MeW-K(NMeAc)-Pen(3)-AEF-6OH2Nal-THP-Q(N(Me)2)-N-3Pya-Sar-CONH2] ({Me3N+(CH2)2O(CH2)2O(CH2)2CO}-[Pen]NT[Trp(7-Me)][Lys(Me)](Ac)[Pen][AEF][2Nal(6-OH)][Thp]E(NMe2)N[3Pal][Sar]-NH2; disulfide 1-6) | < 0.01 nM | < 10 nM | –
7 | CC(=O)NCCCC[C@@H]1NC(=O)[C@H](Cc2c[nH]c3c(C)cccc23)NC(=O)[C@H]([C@@H](C)O)NC(=O)[C@@H]2CCCCNCCOc3ccc(cc3)C[C@@H](C(=O)N[C@@H](Cc3ccc4cc(O)ccc4c3)C(=O)NC3(C(=O)N[C@@H](CCCCNC(C)=O)C(=O)N[C@@H](CC(N)=O)C(=O)N[C@@H](Cc4cccnc4)C(=O)N(C)CC(N)=O)CCOCC3)NC(=O)[C@@H](NC1=O)C(C)(C)SSC(C)(C)[C@H](NC(=O)CCCCC[N+](C)(C)C)C(=O)N2 [compound 112, 5cpaCO-Pen(3)-K(5)-T-7MeW-K(Ac)-Pen(3)-AEF(5)-6OH2Nal-THP-K(Ac)-N-3Pya-Sar-CONH2] | < 0.01 nM | < 10 nM | –
8 | C[C@@H](O)[C@@H]1NC(=O)[C@H](CC(N)=O)NC(=O)[C@@H]2CCSC[C@H](NC(=O)[C@H](CCC(N)=O)NC(=O)[C@H](Cc3c[nH]c4ccccc34)NC1=O)C(=O)N[C@@H](Cc1ccc(OCCN)cc1)C(=O)N[C@@H](Cc1ccc3cc(O)ccc3c1)C(=O)NC1(CCOCC1)C(=O)N[C@H](C(=O)N[C@@H](CC(N)=O)C(=O)N[C@@H](Cc1cccnc1)C(=O)N(C)CC(N)=O)CCC(=O)NCCCCC(=O)N2 [compound 172] ([Ava][Abu(4-yl)]NTWQC[AEF][2Nal(6-OH)][Thp]EN[3Pal][Sar]-NH2; thioether 2-7; lactam N-11) | < 0.01 nM | < 10 nM | –
9 | CC(=O)NCCCC[C@@H]1NC(=O)[C@H](Cc2c[nH]c3c(-c4cccc(NC(C)=O)c4)cccc23)NC(=O)[C@H]([C@@H](C)O)NC(=O)[C@H](CC(N)=O)NC(=O)[C@@H](NC(=O)[C@@H](CCCC[N+](C)(C)C)NC(C)=O)C(C)(C)SSC(C)(C)[C@@H](C(=O)N[C@@H](Cc2ccc(OCCNC(=N)N)cc2)C(=O)N[C@@H](Cc2ccc3cc(O)ccc3c2)C(=O)NC2(C(=O)N[C@@H](CCC(=O)O)C(=O)N[C@@H](CC(N)=O)C(=O)N[C@@H](Cc3cncc(C)c3)C(=O)N(C)CC(N)=O)CCOCC2)NC1=O [compound 11, MeCO-k(Me)3-Pen(3)-N-T-7(3NAcPh)W-K(Ac)-Pen(3)-AEF(G)-6OH2Nal-THP-E-N-5MePyridinAla-Sar-CONH2] (Ac-[dLys(Me3)][Pen]NT[Trp(7-(3-AcNH-Ph))]K(Ac)[Pen]Y(Ethyl(2-guanidino))[2Nal(6-OH)][Thp]EN[3Pal(5-Me)][Sar]-NH2; disulfide 2-7) | < 0.01 nM | < 10 nM | –
10 | CC(=O)N(C)CCCC[C@@H]1NC(=O)[C@H](Cc2c[nH]c3c(C)cccc23)NC(=O)[C@H]([C@@H](C)O)NC(=O)[C@H](CC(=O)N(C)C)NC(=O)[C@H]2NC(=O)[C@H](NC(=O)CCOCCOCC[N+](C)(C)C)CCCCNC(=O)CCC[C@@H](C(=O)N[C@@H](CC(N)=O)C(=O)N[C@@H](Cc3cccnc3)C(=O)N(C)CC(=O)N(C)C)NC(=O)C3(CCOCC3)NC(=O)[C@H](Cc3ccc4cc(O)ccc4c3)NC(=O)[C@H](Cc3ccc(OCCN)cc3)NC(=O)[C@@H](NC1=O)C(C)(C)SSC2(C)C [compound 373, cPEG3aCO-k(2)-Pen(3)-N(N(Me)2)-T-7MeW-K(NMeAc)-Pen(3)-AEF-6OH2Nal-THP-hE(2)-N-3Pya-Sar-CON(Me)2] ({Me3N+(CH2)2O(CH2)2O(CH2)2CO}-[dK][Pen]D(NMe2)T[Trp(7-Me)][Lys(Me)](Ac)[Pen][AEF][2Nal(6-OH)][Thp][Aad]N[3Pal][Sar]-NMe2; lactam 1-11; disulfide 2-7) | < 0.01 nM | < 10 nM | –
